Test results from US8124793B2, “Derivatives of ethylene methanedisulfonate as cancer chemotherapeutic agents” (priority 2007, dated 2012).

Legend:
SN12C = test: NCI screen, growth of human tumor cells: Renal Cancer SN12C; type: cell-based; conditions: SN12C (Renal Cancer), 10^−4 molar
Outline: (§1)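 Under the NCI protocol, every compound is profiled with sixty or more data points. Each point ties a cancer type and a molar screening concentration to a percent growth value.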

SF-268 = test: NCI screen, growth of human tumor cells: CNS Cancer SF-268; type: cell-based; conditions: SF-268 (CNS Cancer), 10^−4 molar
Outline: as §1

NCI-H522 = test: NCI screen, growth of human tumor cells: Non-Small Cell Lung NCI-H522; type: cell-based; conditions: NCI-H522 (Non-Small Cell Lung), 10^−4 molar
Outline: as §1

HCT-15 = test: NCI screen, growth of human tumor cells: Colon Cancer HCT-15; type: cell-based; conditions: HCT-15 (Colon Cancer), 10^−4 molar
Outline: as §1

KM12 = test: NCI screen, growth of human tumor cells: Colon Cancer KM12; type: cell-based; conditions: KM12 (Colon Cancer), 10^−4 molar
Outline: as §1

IGROVI = test: NCI screen, growth of human tumor cells: Ovarian Cancer IGROVI; type: cell-based; conditions: IGROVI (Ovarian Cancer), 10^−4 molar
Outline: as §1

MDA-MB-435 = test: NCI screen, growth of human tumor cells: Breast Cancer MDA-MB-435; type: cell-based; conditions: MDA-MB-435 (Breast Cancer), 10^−4 molar
Outline: as §1

MCF 7 = test: NCI screen, growth of human tumor cells: Breast Cancer MCF 7; type: cell-based; conditions: MCF 7 (Breast Cancer), 10^−4 molar
Outline: as §1

UACC-62 = test: NCI screen, growth of human tumor cells: Melanoma UACC-62; type: cell-based; conditions: UACC-62 (Melanoma), 10^−4 molar
Outline: as §1

DU-145 = test: NCI screen, growth of human tumor cells: Prostate Cancer DU-145; type: cell-based; conditions: DU-145 (Prostate Cancer), 10^−4 molar
Outline: as §1

SF-539 = test: NCI screen, growth of human tumor cells: CNS Cancer SF-539; type: cell-based; conditions: SF-539 (CNS Cancer), 10^−4 molar
Outline: as §1

UACC-257 = test: NCI screen, growth of human tumor cells: Melanoma UACC-257; type: cell-based; conditions: UACC-257 (Melanoma), 10^−4 molar
Outline: as §1

HCT-116 = test: NCI screen, growth of human tumor cells: Colon Cancer HCT-116; type: cell-based; conditions: HCT-116 (Colon Cancer), 10^−4 molar
Outline: as §1

human cancer cells = test: NCI screen summary over the cancers tested (negative growth of human cancer cells); type: cell-based; conditions: 10^−4 M conc.; cancers with negative growth / cancers tested
Method: (§2) In the NCI screening process, each compound was tested and described by a minimum of 60 data points. The test data include, but are not limited to the type of cancer, the molar concentration used in the screen, and the percent growth of the cancer. In some cases, NMR and elemental analysis were used for structural assignment.
The derivatives in the tables are grouped using the same category as in the tables 1-6.

U-251 = test: NCI screen, growth of human tumor cells: CNS Cancer U-251; type: cell-based; conditions: U-251 (CNS Cancer), 10^−4 molar
Outline: as §1

HT29 = test: NCI screen, growth of human tumor cells: Colon Cancer HT29; type: cell-based; conditions: HT-29, 10^−4 molar
Outline: as §1

NCI-H23 = test: NCI screen, growth of human tumor cells: Non-Small Cell Lung NCI-H23; type: cell-based; conditions: NCI-H23 (Non-Small Cell Lung), 10^−4 molar
Outline: as §1

MDA-N = test: NCI screen, growth of human tumor cells: Breast Cancer MDA-N; type: cell-based; conditions: 10^−4 molar
Method: as §2

LOXIMVI = test: NCI screen, growth of human tumor cells: Melanoma LOXIMVI; type: cell-based; conditions: LOXIMVI (Melanoma), 10^−4 molar
Outline: as §1

OVCAR-3 = test: NCI screen, growth of human tumor cells: Ovarian Cancer OVCAR-3; type: cell-based; conditions: OVCAR-3 (Ovarian Cancer), 10^−4 molar
Outline: as §1

EKVX = test: NCI screen, growth of human tumor cells: Non-Small Cell Lung EKVX; type: cell-based; conditions: EKVX (Non-Small Cell Lung), 10^−4 molar
Outline: as §1

M14 = test: NCI screen, growth of human tumor cells: Melanoma M14; type: cell-based; conditions: M14 (Melanoma), 10^−4 molar
Outline: as §1

NCI-H460 = test: NCI screen, growth of human tumor cells: Non-Small Cell Lung NCI-H460; type: cell-based; conditions: NCI-H460 (Non-Small Cell Lung), 10^−4 molar
Outline: as §1

SK-MEL-5 = test: NCI screen, growth of human tumor cells: Melanoma SK-MEL-5; type: cell-based; conditions: SK-MEL-5 (Melanoma), 10^−4 molar
Outline: as §1

OVCAR-4 = test: NCI screen, growth of human tumor cells: Ovarian Cancer OVCAR-4; type: cell-based; conditions: OVCAR-4 (Ovarian Cancer), 10^−4 molar
Outline: as §1

MDA-MB-231/ATCC = test: NCI screen, growth of human tumor cells: Breast Cancer MDA-MB-231/ATCC; type: cell-based; conditions: MDA-MB-231/ATCC (Breast Cancer), 10^−4 molar
Outline: as §1

[1] = Water solubility noted at isolation; type: physicochemical; conditions: observation on the isolated product
Method: To a solution of 0.8 g of ethylene bromomethanedisulfonate (91-5) in 50 mL of glyme with 0.2 g of NaH was added followed by 0.6 g of the anhydride of 1,2-ethanedisulfonic acid. After 24 hrs, the solvent was removed and the residue taken up in 10 mL of acetone to give 0.5 g of water soluble 96-13.
To a solution of 0.58 g of ethylene methanedisulfonate in 50 mL of glyme and 0.2 g of NaH was added 0.65 g of 8-quinolinesulfonyl chloride. After 3 hrs., the solution was filtered, and the solid was washed with CH2Cl2 and dried overnight to give 1.155 g of a mixture of NaCl, Na2CO3, and product. A sample was H2O soluble and the calculated yield, based on assumption of the NaCl and Na2CO3, was 0.848 g (71%) of 97-4.

HCC-2998 = test: NCI screen, growth of human tumor cells: HCC-2998 (listed under Non-Small Cell Lung); type: cell-based; conditions: HCC-2998 (under Non-Small Cell Lung), 10^−4 molar
Outline: as §1

OVCAR-8 = test: NCI screen, growth of human tumor cells: Ovarian Cancer OVCAR-8; type: cell-based; conditions: OVCAR-8 (Ovarian Cancer), 10^−4 molar
Outline: as §1

SK-MEL-2 = test: NCI screen, growth of human tumor cells: Melanoma SK-MEL-2; type: cell-based; conditions: SK-MEL-2 (Melanoma), 10^−4 molar
Outline: as §1

MALME-3M = test: NCI screen, growth of human tumor cells: Melanoma MALME-3M; type: cell-based; conditions: MALME-3M (Melanoma), 10^−4 molar
Outline: as §1

MCF7/ADR-RES = test: NCI screen, growth of human tumor cells: Breast Cancer MCF7/ADR-RES; type: cell-based; conditions: MCF7/ADR-RES (Breast Cancer), 10^−4 molar
Outline: as §1

SF-295 = test: NCI screen, growth of human tumor cells: CNS Cancer SF-295; type: cell-based; conditions: SF-295 (CNS Cancer), 10^−4 molar
Outline: as §1

In the case of `O=S1(=O)OCCOS(=O)(=O)C1c1cccc2cccnc12` [NSC 698122, ethylene 8-quinolylmethanedisulfonate], the “percent of growth of human tumor cells” value (SN12C) is reported as 28%, the “percent of growth of human tumor cells” value (SF-268) is reported as 24% and the “percent of growth of human tumor cells” value (NCI-H522) is reported as −40%. For the same compound, the “percent of growth of human tumor cells” value (HCT-15) was 18%, the “percent of growth of human tumor cells” value (KM12) was 7% and the “percent of growth of human tumor cells” value (IGROVI) was 17%. For the same compound, the “percent of growth of human tumor cells” value (MDA-MB-435) was 19%, the “percent of growth of human tumor cells” value (MCF 7) was 12% and the “percent of growth of human tumor cells” value (UACC-62) was −46%. For the same compound, the “percent of growth of human tumor cells” value (DU-145) was 2%, the “percent of growth of human tumor cells” value (SF-539) was 30% and the “percent of growth of human tumor cells” value (UACC-257) was 13%. For the same compound, the “percent of growth of human tumor cells” value (HCT-116) was 16%, the “Percentage of cancers showing negative growth cancers tested” value (human cancer cells) was 10^−4 M conc. = 8/31 = 25.8% and the “percent of growth of human tumor cells” value (U-251) was −53%. The “% Growth” value (HT29) was −64%, the “percent of growth of human tumor cells” value (NCI-H23) was 27% and the “percent of growth of human tumor cells” value (MDA-N) was 10%. The “percent of growth of human tumor cells” value (LOXIMVI) was −43%, the “percent of growth of human tumor cells” value (OVCAR-3) was 25% and the “percent of growth of human tumor cells” value (EKVX) was 28%. For the same compound, the “percent of growth of human tumor cells” value (M14) was 10%, the “percent of growth of human tumor cells” value (NCI-H460) was −40% and the “percent of growth of human tumor cells” value (SK-MEL-5) was 15%. For the same compound, the “percent of growth of human tumor cells” value (OVCAR-4) was 30%, the “percent of growth of human tumor cells” value (MDA-MB-231/ATCC) was 26% and the water solubility [1] was “H2O soluble”. The “percent of growth of human tumor cells” value (HCC-2998) was −12%, the “percent of growth of human tumor cells” value (OVCAR-8) was 19% and the “percent of growth of human tumor cells” value (SK-MEL-2) was 24%. For the same compound, the “percent of growth of human tumor cells” value (MALME-3M) was 29%, the “percent of growth of human tumor cells” value (MCF7/ADR-RES) was −5% and the “percent of growth of human tumor cells” value (SF-295) was 18%.
